From US20060241114A1, “Derivatives of azasugars as anticancer agents” (priority 2003, published 2006)

Assays:
[1] = test system: HT29 (colorectal adenocarcinoma); test: In vitro growth inhibition screen (sulphorhodamine B), HT29; type: cell-based, human; details: HT29 cells, incubated for 48 hours, sulphorhodamine B dye; read-out: GI50 (concentration which inhibits the cell growth by 50%), HT29 Colorectal adenocarcinoma
Method in brief: (§1)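 GI50 (50% growth inhibition) from sulphorhodamine B staining of TCA-fixed cells, OD 490. Compounds at ten-fold dilutions from ≧100 μM down to 10 nM were added a day after plating and left 48 h; culture in RPMI 1640 with 10% FCS, 37 °C, 5% CO2.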

[2] = test system: MCF7ADR (adriamycin resistant breast adenocarcinoma); test: In vitro growth inhibition screen (sulphorhodamine B), MCF7ADR; type: cell-based, human; details: MCF7ADR cells, incubated for 48 hours, sulphorhodamine B dye; read-out: GI50 (concentration which inhibits the cell growth by 50%), MCF7ADR Adriamycin Resistant Breast adenocarcinoma
Method in brief: as §1

[3] = test system: U251 (human glioblastoma); test: In vitro growth inhibition screen (sulphorhodamine B), U251; type: cell-based; details: U251 cells, incubated for 48 hours, sulphorhodamine B dye; read-out: GI50 (concentration which inhibits the cell growth by 50%), U251 Human glioblastoma astrocytoma
Method in brief: as §1

[4] = test system: MCF7 (breast adenocarcinoma); test: In vitro growth inhibition screen (sulphorhodamine B), MCF7; type: cell-based, human; details: MCF7 cells, incubated for 48 hours, sulphorhodamine B dye; read-out: GI50 (concentration which inhibits the cell growth by 50%), MCF7 Breast adenocarcinoma
Method in brief: as §1

LOX (melanoma) = test: In vitro growth inhibition screen (sulphorhodamine B), LOX; type: cell-based, human; details: LOX cells, incubated for 48 hours, sulphorhodamine B dye; read-out: GI50 (concentration which inhibits the cell growth by 50%), LOX Melanoma
Method in brief: as §1

[5] = test system: DU145 (prostate carcinoma); test: In vitro growth inhibition screen (sulphorhodamine B), DU145; type: cell-based, human; details: DU145 cells, incubated for 48 hours, sulphorhodamine B dye; read-out: GI50 (concentration which inhibits the cell growth by 50%), DU145 Prostate carcinoma
Method in brief: as §1

CCCN1C(=O)[C@H](OCc2ccccc2)[C@@H](OCc2ccccc2)[C@H](OCc2ccccc2)[C@H]1CNC(=O)Cn1ncn(-c2ccc(Cl)cc2)c1=O [Compound No. 57, 2,3,4-Tri-O-benzyl-6-N-{2-[4-chlorophenyl-3-(2H,4H)-1,2,4-triazol-3-onyl]acetyl}-N-propyl-D-gluco-δ-lactam]
GI50 [1]: 22.7 µM | GI50 [2]: 247 µM | GI50 [3]: 154 µM | GI50 [4]: 20.1 µM | GI50 (LOX (melanoma)): 25.1 µM | GI50 [5]: 64.4 µM

CCCN1C(=O)[C@H](OCc2ccccc2)[C@@H](OCc2ccccc2)[C@H](OCc2ccccc2)[C@H]1CNC(=O)Nc1ccc(C(F)(F)F)cc1 [Compound No. 22, 2,3,4-Tri-O-benzyl-6-N-{[4-trifluoromethylphenyl]aminocarbonylamino}-N-propyl-D-gluco-δ-lactam]
GI50 [1]: 11.9 µM | GI50 [2]: 8.2 µM | GI50 [3]: 5.1 µM | GI50 [4]: 39.8 µM | GI50 (LOX (melanoma)): 4.3 µM | GI50 [5]: 5.1 µM

CCCN1C(=O)[C@H](O)[C@@H](O)[C@H](O)[C@H]1CN1C(=O)CCC1=O [Compound No. 86, 6-(2,5-Diketopyrrolidino)-N-propyl-D-gluco-δ-actam]
GI50 [1]: 44.4 µM | GI50 [2]: 52.2 µM | GI50 [3]: 34.4 µM | GI50 [4]: 36.2 µM | GI50 (LOX (melanoma)): 37.5 µM | GI50 [5]: 38.5 µM

C=CCN1C(=O)[C@H](OCc2ccccc2)[C@@H](OCc2ccccc2)[C@H](OCc2ccccc2)[C@H]1CN1C(=O)c2ccccc2C1=O [Compound No. 83, N-Allyl-2,3,4-tri-O-benzyl-6-(1H-isoindole-1,3(2H)-diketo)-D-gluco-δ-lactam]
GI50 [1]: 80.1 µM | GI50 [2]: 6.7 µM | GI50 [3]: > 140 µM | GI50 [4]: 13.1 µM | GI50 (LOX (melanoma)): 51.4 µM | GI50 [5]: 55.2 µM

CCCN1C[C@H](OCc2ccccc2)[C@@H](OCc2ccccc2)[C@H](OCc2ccccc2)[C@H]1CNC(=O)Nc1ccc(F)cc1 [Compound No. 40, 2,3,4-Tri-O-benzyl-6-N-{[4-fluorophenyl]aminocarbonylamino}-1,5-dideoxy-1,5-imino-N-propyl glucitol]
GI50 [1]: 2 µM | GI50 [2]: 18.4 µM | GI50 [3]: 20.1 µM | GI50 [4]: 9.7 µM | GI50 (LOX (melanoma)): 27.2 µM | GI50 [5]: 35.7 µM

CCCN1C(=O)C(OCc2ccccc2)C(OCc2ccccc2)C(OCc2ccccc2)C1CNC(=O)Nc1cc(Cl)ccc1OC [Compound No. 15, 2,3,4-Tri-O-benzyl-6-N-{[3-chloro-6-methoxyphenyl]aminocarbonylamino}-N-propyl-D-gluco-δ-lactam]
GI50 [1]: 41.9 µM | GI50 [2]: 53.8 µM | GI50 [3]: 40.8 µM | GI50 [4]: 29.9 µM | GI50 (LOX (melanoma)): 57.2 µM | GI50 [5]: 44.4 µM

CCCN1C(=O)[C@H](OCc2ccccc2)[C@@H](OCc2ccccc2)[C@H](OCc2ccccc2)[C@H]1CNC(=O)Nc1cccc(Cl)c1 [Compound No. 13, 2,3,4-Tri-O-benzyl-6-N-{[3-chlorophenyl]aminocarbonylamino}-N-propyl-D-gluco-δ-lactam]
GI50 [1]: 3.6 µM | GI50 [2]: 4.6 µM | GI50 [3]: 6.4 µM | GI50 [4]: 6.4 µM | GI50 (LOX (melanoma)): 3.1 µM | GI50 [5]: 4.2 µM

CCCN1C(=O)[C@H](O)[C@@H](O)[C@H](O)[C@H]1CNC(=O)Nc1ccc(N)cc1 [Compound No. 28, 6-N-{[p-Aminophenyl]aminocarbonylamino}-N-propyl-D-gluco-δ-lactam]
GI50 [1]: 242 µM | GI50 [2]: 194 µM | GI50 [3]: 557 µM | GI50 [4]: 106 µM | GI50 (LOX (melanoma)): 136 µM | GI50 [5]: 288 µM

CCCN1C(=O)C(OCc2ccccc2)C(OCc2ccccc2)C(OCc2ccccc2)C1CNC(=O)Nc1ccc(Cl)cc1 [Compound No. 3, 2,3,4-Tri-O-benzyl-6-N-{[4-chlorophenyl]aminocarbonylamino}-N-propyl-D-gluco-δ-lactam]
GI50 [1]: 6.1 µM | GI50 [2]: 8.2 µM | GI50 [3]: 1.1 µM | GI50 [4]: 0.8 µM | GI50 (LOX (melanoma)): 2.1 µM | GI50 [5]: 2 µM

CCCN1C(=O)[C@H](O)[C@@H](O)[C@H](O)[C@H]1COC(=O)Nc1ccccc1 [Compound No. 43, N-Propyl-6-(phenylcarbamate)-N-propyl-D-gluco-δ-lactam]
GI50 [1]: 208 µM | GI50 [2]: 280 µM | GI50 [3]: 235 µM | GI50 [4]: 115 µM | GI50 (LOX (melanoma)): 161 µM | GI50 [5]: 226 µM

CCCN1C(=O)[C@H](OCc2ccccc2)[C@@H](OCc2ccccc2)[C@H](OCc2ccccc2)[C@H]1CNC(=O)Nc1c(Cl)cc(Cl)cc1Cl [Compound No. 17, 2,3,4-Tri-O-benzyl-6-N-{[2,4,6-trichlorophenyl]aminocarbonylamino}-N-propyl-D-gluco-δ-lactam]
GI50 [1]: 213 µM | GI50 [2]: 348 µM | GI50 [3]: 206 µM | GI50 [4]: > 528 µM | GI50 (LOX (melanoma)): 170 µM | GI50 [5]: 82.2 µM

CCCN1C(=O)[C@H](OC(C)=O)[C@@H](OC(C)=O)[C@H](OC(C)=O)[C@H]1CNC(=O)Nc1ccc(OC)cc1 [Compound No. 32, 2,3,4-Tri-O-acetyl-6-N-{[4-methoxyphenyl]aminocarbonylamino}-N-propyl-D-gluco-δ-lactam]
GI50 [1]: 37.7 µM | GI50 [2]: 94.4 µM | GI50 [3]: 62 µM | GI50 [4]: 74.8 µM | GI50 (LOX (melanoma)): 87.4 µM | GI50 [5]: 55.3 µM

CCCN1C(=O)[C@H](OCc2ccccc2)[C@@H](OCc2ccccc2)[C@H](OCc2ccccc2)[C@H]1CNC(=O)N1CC2C(C1)C2NC(C)=O (stereo partly drawn) [Compound No. 79, 2,3,4-Tri-O-benzyl-6-N-{(1α,5α,6α)-6-acetylamino-azabicyclo[3.1.0]hexylcarboxamido}-N-propyl-D-gluco-δ-lactam]
GI50 [1]: 21.8 µM | GI50 [2]: 17.9 µM | GI50 [3]: 15.5 µM | GI50 [4]: 18.2 µM | GI50 (LOX (melanoma)): 7.4 µM | GI50 [5]: 18.9 µM

CCCN1C(=O)[C@H](OCc2ccccc2)[C@@H](OCc2ccccc2)[C@H](OCc2ccccc2)[C@H]1CNC(=O)c1ccc(F)cc1F [Compound No. 47, 2,3,4-Tri-O-benzyl-6-N-{[2,4-difluorophenyl]carboxamido}-N-propyl-D-gluco-δ-lactam]
GI50 [1]: 49.3 µM | GI50 [2]: 68.2 µM | GI50 [3]: 155 µM | GI50 [4]: 14.7 µM | GI50 (LOX (melanoma)): 51.4 µM | GI50 [5]: 153 µM

O[C@H]1[C@H](O)[C@@H](Cn2cncn2)NC[C@@H]1O [Compound No. 72, 1,5-Dideoxy-1,5-imino-6-triazolyl-glucitol]
GI50 [1]: 244 µM | GI50 [2]: 275 µM | GI50 [3]: 282 µM | GI50 [4]: 208 µM | GI50 (LOX (melanoma)): 146 µM | GI50 [5]: 340 µM

CCCN1C[C@H](OCc2ccccc2)[C@@H](OCc2ccccc2)[C@H](OCc2ccccc2)[C@H]1CNC(=O)Nc1ccc(Cl)cc1 [Compound No. 36]
GI50 [1]: 0.8 µM | GI50 [2]: 19.1 µM | GI50 [3]: 11.7 µM | GI50 [4]: 0.3 µM | GI50 (LOX (melanoma)): 0.9 µM | GI50 [5]: 16.7 µM

2,3,4-Tri-O-benzyl-6-N-{[isopropyl]aminocarbonylamino}-1,5-dideoxy-1,5-imino-N-propyl glucitol [Compound No. 38]
GI50 [1]: 35 µM | GI50 [2]: > 380 µM | GI50 [3]: > 380 µM | GI50 [4]: > 380 µM | GI50 (LOX (melanoma)): 281 µM | GI50 [5]: 98.4 µM

CCCN1C(=O)[C@H](OCc2ccccc2)[C@@H](OCc2ccccc2)[C@H](OCc2ccccc2)[C@H]1CNC(=O)c1cccs1 [Compound No. 46, 2,3,4-Tri-O-benzyl-N-propyl-6-{[2-thiophene]carboxamido}-D-gluco-δ-lactam]
GI50 [1]: 3.3 µM | GI50 [2]: 83.4 µM | GI50 [3]: 105 µM | GI50 [4]: 18.4 µM | GI50 (LOX (melanoma)): 178 µM | GI50 [5]: 83.8 µM
